Measured values reported in PMC5007978, “A chemical with proven clinical safety rescues Down-syndrome-related phenotypes in through DYRK1A inhibition” (Disease Models & Mechanisms, 2016).

System: mnb-overexpressing Drosophila
Experiment: Embryonic neurological phenotype with pan-neuronal mnb overexpression (elav::synGFP)
Type: in vivo
Text: The expression of human Tau in Drosophila retinal tissue (GMR>Tau) produced a small rough eye phenotype (GMR>Tau in Fig. 6A and B), as described previously ([Jackson et al., 2002]). […] Pan-neuronal mnb overexpression (elav::synGFP>mnb) caused severe neurogenic defects in both the central and peripheral nervous system during embryogenesis [elav::synGFP>mnb (DMSO) in Fig. 6C]. […] Moreover, the viability of adult flies with the neuronal overexpression of mnb was examined. Pan-neuronal overexpression of mnb caused high rates of mortality in adult flies (∼70%, Fig. 6D).
Fig. 6. CX-4945 rescues neurological and phenotypic defects in an mnb-overexpressing Drosophila model. (A) The eyes of adult flies overexpressing mnb and/or human Tau under the control of the eye-specific GMR-Gal4 driver, and of control flies bearing only GMR-Gal4. Overexpression of mnb aggravated the eye abnormality induced by Tau overexpression. […] White dashed lines outline the eye contour. (B) The retinal surface areas were measured on multiple samples (n>10) from each genotype, and average eye sizes were presented as normalized percentages of the DMSO-treated GMR-Gal4 control. (C) The brain cortex, primary neuronal cell clusters and axon bundle, as visualized with GFP (green) using UAS-Synaptobrevin-GFP driven by elav-Gal4 at the late embryonic stage 18. […]

O=C(O)c1ccc2c(c1)nc(Nc1cccc(Cl)c1)c1ccncc12 [CX-4945]
effect on control flies lacking mnb overexpression (100 nM, elav::synGFP>control): little noticeable effect
neurogenic defects of mnb-overexpressing embryos (parent flies fed 100 nM, elav::synGFP>mnb): restored these neurogenic defects
